From US9676997B2, “Compositions and methods for stabilizing luminogenic substrates” (Promega Corporation, priority 2014, dated 2017)

Tests used:
[1] = Stability of 1.25 mM coelenterazine-h in 50% ethanol and 50% propylene glycol with or without 225 mM ATT, HPLC and Arrhenius plots; type: physicochemical; conditions: 225 mM ATT, over time at different temperatures
Procedure: The stability of coelenterazine-h in the presence and absence of ATT was measured over time at different temperatures. Specifically, 1.25 mM coelenterazine-h was present in a solution of 50% ethanol and 50% propylene glycol (i.e., the solution without ATT) or a solution of 50% ethanol and 50% propylene glycol with 225 mM ATT (i.e., the solution with ATT). These two solutions were incubated at −20° C., room temperature (RT), 40° C., or 60° C. and analyzed at for 0 days, 1 day, 3 days, 7 days, 15 days, and 30 days.
Following incubation, high performance liquid chromatography (HPLC) was utilized to identify the components of the respective solutions at each time point. Specifically, an Agilent 1100 HPLC instrument was used and equipped with a quaternary pump, thermostatted autosampler and column compartment, and a G1311B diode-array detector. The column used was a Synergi-MAX-RP (Phenomenex, Torrance, Calif.) 100 AÅ 50×4.6 2.5 μm. The run on the HPLC was a gradient run with 0.1% TFA in water and acetonitrile. Absorbance was measured at 262 nanometers (nm). Standards of coelenterazine-h and its known degradants were run to confirm both the retention time and absorbance trace. 5 μl of each solution was injected and the retention time of coelenterazine-h was 4.7 minutes at room temperature.
The results of the HPLC analysis are shown below in Tables 4 and 5 and FIGS. 2A and 2B, in which the values are reported as relative peak area percentage at 262 nm (i.e., the lamba max of the substrate). […] In each of FIGS. 2A and 2B, diamond is 1.25 mM coelenterazine-h incubated over time with or without 225 mM ATT, respectively, at −20° C., triangle is 1.25 mM coelenterazine-h incubated over time with or without 225 mM ATT, respectively, at room temperature (RT), star is 1.25 mM coelenterazine-h incubated over time with or without 225 mM ATT, respectively, at 40° C., and cross is 1.25 mM coelenterazine-h incubated over time with or without 225 mM ATT, respectively, at 60° C.
From the HPLC analysis, the half-life of coelenterazine-h in the presence of ATT at 40° C. and 60° C. was calculated to be 20 days and 5 days, respectively, while the half-life of coelenterazine-h in the absence of ATT at 20° C., 40° C. and 60° C. was calculated to be 24 days, 7.5 days and 2 days, respectively (see Table 6 below).
Additionally, Arrhenius plots were generated for coelenterazine-h in the presence and absence of ATT to calculate the half-life of coelenterazine-h at various temperatures. The Arrhenius equation is as follows: […]
In FIG. 9, the slope was −8131.2, the intercept was 22.6157, and R^2 was 0.9994.
In FIG. 10, the slope was −7310.53, the intercept was 21.4386, and R^2 was 0.9964.

[2] = Stability of furimazine at 37° C. in different organic solvents with or without ATT, luminescence with NANOLUC luciferase; type: physicochemical; conditions: 50% PG:50% ethanol, 60% PG:40% ethanol, 15% glycerol:85% ethanol, 250 or 300 mM ATT vs no ATT
Procedure: To further examine the stabilization of furimazine at 37° C., luminescence was measured after furimazine was incubated in the presence of different organic solvents, namely 50% (v/v) propylene glycol (PG):50% (v/v) ethanol, 60% (v/v) propylene glycol (PG):40% (v/v) ethanol, and 15% (v/v) glycerol:85% (v/v) ethanol.
1.25 mM stocks of furimazine were prepared in the following solutions: a) 50% propylene glycol:50% ethanol, 1.25 mM furimazine, 250 mM ATT; b) 60% propylene glycol:40% ethanol, 1.25 mM furimazine, 300 mM ATT; c) 15% glycerol:85% ethanol, 1.25 mM furimazine, 250 mM ATT; and inventory furimazine (Promega Corporation). Furimazine was first dissolved and then ATT was added. To make 4 mL of each sample, 2 mg furimazine and 143 mg of ATT (250 mM ATT) was added. For 300 mM ATT, 171 mg of ATT was added.
A portion of these samples was aliquoted into amber Starstead tubes with O-rings and then placed at 37° C. […] The remaining sample was placed at −20° C. in a 15 mL tube and monitored for precipitate formation.
Prior to assaying the samples, they were heated to room temperature (RT) and vortexed to ensure that any material that fell out of solution was re-suspended. […] The resulting dilutions were incubated for 3 minutes at RT, and luminescence was detected on a luminometer (GLOMAX Multi plus luminometer, Promega Corporation). […]

SMILES	stabilization of coelenterazine-h against decomposition [1]	stability of furimazine (normalized RLUs over time) [2]
Cc1n[nH]c(=S)[nH]c1=O [ATT, 6-methyl-3-thioxo-3,4-dihydro-1,2,4-triazin-5(2H)-one]	stabilized coelenterazine-h against decomposition over time at different temperatures	–
O=c1c(Cc2ccco2)nc2c(Cc3ccccc3)[nH]c(-c3ccccc3)cn1-2 [Furimazine, furimazine]	–	more stable in the presence of ATT than in the absence of ATT for each organic solvent
